The values that follow come from patent US20260248833A1, “PYRIMIDINE NUCLEOSIDE TREATMENTS” (The Children`s Medical Center Corporation, priority 2022, published 2026).

“Also recorded” adds a separate entry of the source.

Data set [1] relates to T-free super-telomerase expressing cells (293T TERC-null). In words: Slot blot of GGAAAG repeat content in cellular DNA. It counts as cell-based, human. The following applies: 5FU (10 μM) or HU (500 μM). As to the method: Slot blotting: slot blotting was performed as described with minor modifications. Briefly, DNA concentration was normalized to 20 ng/μl using a nanodrop spectrophotometer. 3.3 μl of DNA was added to 16.5 μl of denaturation solution (0.5 M NaOH, 1.5 M NaCl) and heated to 55° C. for 30 minutes. 495 μl of neutralization solution (0.5 M Tris-HCl, 1.5 M NaCl) was added to denatured DNA and 156 μl of this solution was added in triplicate to different slots on a Bio-Dot SF Apparatus (Bio-Rad) and blotted onto Hybond N+ Membrane (Cytivia). Membrane preparation and washing was performed as described. For samples with paired GGTTAG and GGAAAG slot blots, the above recipe was doubled, and 156 μl was loaded onto parallel membranes in triplicate on each membrane. After blotting, membranes were hybridized and detected as described above for TRF Southern blots using the probe indicated in the figure. Blots were analyzed using ImageJ. Statistical analysis was performed using Graphpad prism V9.1.0.

Data set [2] relates to pCHK1-S345 and pRPA32-S33. The data set is described as follows: Immunoblot of replication stress signaling in super-telomerase cells. It counts as cell-based, human. The following applies: highest doses, 30 hours.
The test system of data set [3] is super-telomerase cells (TERC-null 293T cells transfected with TERT and TERC). In words: TRF Southern blot telomere synthesis in super-telomerase cells. The following applies: treatment for 30 hours. It counts as cell-based, human. As for the experimental part:
(§1) Terminal Restriction Fragment Length Analysis: genomic DNA was isolated from cells using the Invitrogen Purelink Genomic DNA mini kit (Invitrogen). 1-3 μg of gDNA was digested with RsaI and HinfI for 2-3 hrs at 37° C. and loaded onto a 0.6% agarose gel followed by Southern blotting using the Telotaggg Telomere Length Assay Kit (Roche). Quantification was performed using the WALTER webtool.
dT supplementation increases levels of dTTP and can reduce dCTP levels, leading to replication stress at high doses. Because replication stress signaling has been implicated in telomerase biology we asked whether replication stress induction explained the telomere length increases seen with dT treatment. We first tested whether telomere elongation is a universal response to replication stress-inducing compounds. […] However, cytotoxicity limited our ability to apply higher doses of replication stress-inducing compounds for time periods long enough to study telomere length changes. […] Using this system, we next asked how high-dose treatment with replication stress-inducing agents such as aphidicolin, hydroxyurea, and the TYMS inhibitor 5FU influence telomere synthesis compared to dT.

The subject of the next data set is 293T cells. In words: Terminal restriction fragment (TRF) Southern blot telomere length, 293T cells. It counts as cell-based, human. As to the method: (§2) Cell culture: K562 cells (ATCC) were grown in RPMI1 1640 (Gibco) media supplemented with 10% fetal bovine serum. 293T cells (ATCC) were grown in DMEM (Gibco) supplemented with 10% fetal bovine serum, and were subcultured using 0.05% trypsin (Gibco). iPSCs were derived, characterized and cultured as previously described. iPSCs were grown in Essential 8 Media (Life Technologies) supplemented with the ROCK inhibitor Y271632 (Stem Cell Technologies) at 10 μM on plates coated with hES qualitied Matrigel matrix (Corning) and were subcultured using Accutase (Stem Cell Technologies).
as §1

For the next data set, the system named is K562 cells. In words: Terminal restriction fragment (TRF) Southern blot telomere length, K562 cells. It counts as cell-based, human. The following applies: K562 cells. As to the method:
as §2, §1

The conditions of data set [4]: co-administration with dT; cited from earlier work.
The subject of another data set is telomere length. The data set is described as follows: Telomere length with cytidine and uridine (FIG. 23). It is filed as cell-based.
For data set [5] the following is noted: at pH of about 7; cited from earlier work.
Setting [6] is: 10 days, doses up to those maximally tolerated.
Setting [7] is: 8 days, doses up to those maximally tolerated.
Where [8] appears, read: 100 μM of the indicated deoxynucleoside(s) for 9 days.
Setting [9] is: 100 μM of the indicated deoxynucleoside(s) for 8 days.
Where [10] appears, read: baseline 16 μM dT, plus 100 μM additional dT or 1 mM dU, 10 days.

As for `O=c1[nH]cc(F)c(=O)[nH]1` [5FU, 5-fluorouracil, reference compound], in data set [1], the “levels of GGAAAG repeats” value is listed as “reduced levels of GGAAAG repeats; also recorded: inhibited T-free telomerase activity”. Moreover, the replication stress signaling entry in data set [2] is “induced similar levels of replication stress signaling”. Besides, in data set [3], the “telomere repeat synthesis / telomere elongation by telomerase” value is given as “ablated telomere elongation by telomerase; also recorded: completely inhibited telomere elongation; also recorded: ablated telomere lengthening in super-telomerase cells”.

Consider `O=C1NC(=NCc2cccs2)S/C1=C\c1ccc2ncccc2c1` [RO-3306, reference compound], for which the telomere length entry with 293T cells (setting [6]) and in the data set on K562 cells (setting [7]) was “No changes were found in telomere length” in each case.

For the compound `C[C@@]1(CO)[C@H](O)CC[C@@]2(C)[C@H]1CC[C@H]1C[C@@H]3C[C@@]12CC[C@]3(O)CO` [aphidicolin, reference compound], the telomere length entry in the data set on 293T cells (setting [6]) is “telomere elongation after 10 days”. Also, the replication stress signaling result in data set [2] was “induced similar levels of replication stress signaling”. For the same compound, the “telomere repeat synthesis / telomere elongation by telomerase” value in data set [3] was “drove detectable increases in telomere length, albeit to a lesser extent than dT”.

With `Nc1ccn([C@@H]2O[C@H](CO)[C@@H](O)[C@H]2O)c(=O)n1` [cytidine, 4-amino-1-[(2R,3R,4S,5R)-3,4-dihydroxy-5-(hydroxymethyl)oxolan-2-yl]pyrimidin-2 (1H)-one], the “toxicity caused by dT” value in data set [4] is on record as “reduce toxicity caused by dT”. The telomere length result in the data set on telomere length was “increase telomere length”.

`Nc1ncnc2c1ncn2[C@H]1C[C@H](O)[C@@H](CO)O1` [dA, deoxyadenosine, reference compound]: the telomere length entry was “but not deoxyadenosine (dA) or deoxyguanosine (dG), rapidly and robustly increases telomere length” with 293T cells (setting [8]); “but not deoxyadenosine (dA) or deoxyguanosine (dG), rapidly and robustly increases telomere length” in the data set on K562 cells (setting [9]).

In the case of `Nc1ccn([C@H]2C[C@H](O)[C@@H](CO)O2)c(=O)n1` [dC, 4-azmino-1-[(2R,4S,5R)-4-hydroxy-5-(hydroxymethyl)oxolan-2-yl]pyrimidin-2 (1H)-one], in data set [4], the “toxicity caused by dT” value is “reduce toxicity caused by dT; also recorded: reduces toxicity of dT and improves cell growth compared to dT alone”. The water solubility entry in data set [5] is “about 870 mg/mL”.

In the case of `Nc1nc2c(ncn2[C@H]2C[C@H](O)[C@@H](CO)O2)c(=O)[nH]1` [dG, deoxyguanosine, reference compound], the telomere length result in the data set on 293T cells (setting [8]) was “but not deoxyadenosine (dA) or deoxyguanosine (dG), rapidly and robustly increases telomere length”; with K562 cells (setting [9]) it was “but not deoxyadenosine (dA) or deoxyguanosine (dG), rapidly and robustly increases telomere length”.

Consider `O=c1ccn([C@H]2C[C@H](O)[C@@H](CO)O2)c(=O)[nH]1` [dU, 1-((2R,4S,5R)-4-Hydroxy-5-(hydroxymethyl)tetrahydrofuran-2-yl)pyrimidine-2,4 (1H,3H)-dione], for which the water solubility result in data set [5] was “about 5 mg/ml”. The “concentration giving telomere elongation to a degree similar to dT” value in the data set with 293T cells (10× the dT concentration) was 1 mM. Besides, the “telomere length with baseline of 16 μM dT” value with 293T cells (added dU, 10 days) was “increased telomere length”; in the data set on K562 cells (added dU, 10 days), “increased telomere length”. For the same compound, the “telomere lengthening in TYMS-knockout cells” value in the data set with 293T cells (setting [10]) and in the data set on K562 cells (setting [10]) was “no longer able to promote telomere lengthening” each time. Further, the telomere length result is on record as “elongate telomeres to a degree similar to dT” with 293T cells (dU 1 mM, 10 days (FIG. 9)) and “promotes telomere elongation” in the data set with 293T cells (dU 1 mM, 10 days (FIG. 9), listed as Deoxyuridine).

In the case of `Nc1nc2ncc(CNc3ccc(C(=O)N[C@@H](CCC(=O)O)C(=O)O)cc3)nc2c(=O)[nH]1` [folate, folic acid, reference compound], the telomere length result in the data set with 293T cells (folate supplementation up to 1 mM, 10 days) was “did not yield telomere elongation”; in the data set with 293T cells (folate supplementation up to 1 mM, 10 days, listed as folic acid), “but not folic acid supplementation promotes telomere elongation”.

Take `NC(=O)NO` [hydroxyurea, reference compound]: the “levels of GGAAAG repeats” value in data set [1] is reported as “reduced levels of GGAAAG repeats”. The telomere length result with 293T cells (setting [6]) is recorded as “No changes were found in telomere length; also recorded: did not change telomere length after 10 days”; in the data set with K562 cells (setting [7]), “No changes were found in telomere length”. Also, the replication stress signaling result in data set [2] is listed as “induced similar levels of replication stress signaling”. For the same compound, the “telomere repeat synthesis / telomere elongation by telomerase” value in data set [3] is given as “ablated telomere elongation by telomerase”.

Turning to `O=c1ccn([C@@H]2O[C@H](CO)[C@@H](O)[C@H]2O)c(=O)[nH]1` [uridine, 1-[(2R,3R,4S,5R)-3,4-Dihydroxy-5-(hydroxymethyl)oxolan-2-yl]pyrimidine-2,4 (1H,3H)-dione], the telomere length result in the data set on telomere length is “increase telomere length”.
